In US20110111407A1, “METHOD FOR ANALYSING THE EPIGENETIC STATUS OF THE HTRA 1 GENE IN A BIOLOGICAL SAMPLE” (priority 2008, published 2011):
Where two headings read alike, the source gives them in different places.

Key:
cells = settings: cited from earlier work
HtrA1 [1] = biological target: HtrA1 (Homo sapiens, UniProt Q92743); assay: HtrA1 enzymatic activity with p-NA substrate; type: biochemical; settings: 25 μM Cytochalasin E, preincubated 10 minutes at 37° C., 0.5 mM p-NA substrate, measured 70 minutes at 405 nm
Procedure: HtrA1 activity was determined with a p-NA substrate. HtrA1 was incubated with either DMSO alone or 25 μM Cytochalasin E that was dissolved in DMSO. Reaction was measured spectrophometrically for 70 minutes at 37° C. at 405 nm.
Enzymatic activity of HtrA1 was assayed using acyl p-nitroanilide (p-NA) substrate FANQHLCGSHLVEA-p-NA. HtrA1 (5 μg) was preincubated with Cytochalasin E (25 μM) for 10 minutes at 37° C. Reaction was initiated by adding p-NA substrate at a final concentration of 0.5 mM. The volume of each reaction was 100 μl in 50 mM Tris-HCl pH 8. Reaction was measured continuously in a spectrophotometer for 70 minutes at 37° C. at 405 nm.

[2] = system: HtrA1 expression in HCT116 and SW480 cells; assay: HtrA1 expression by quantitative real-time PCR after 5-Aza-dC and TSA treatment; type: cell-based, human; settings: HCT116 and SW480 cancer cells treated with 5-Aza-dC (5 μM and 10 μM, 56 h) then 400 nM TSA (16 h) vs solvent only
Procedure: Expression of HtrA1 in HCT116 and SW480 cells treated with 5-Aza-dC and TSA. Cells were treated with 5-Aza-dC and TSA or solvent only. RNA was extracted from the cells followed by reverse transcription. cDNA was analyzed by quantitative real-time PCR.
Cells were seeded at a density of 5×10^5/60 mm dish and allowed to attach over 24 h in a 37° C. incubator in a humified atmosphere with 5% CO2. 5-aza-2′-deoxycytidine was solved in 50% acetic acid. It was added to the medium for a final concentration ranging from 0 to 10 μM for 72 h. At every 24 h interval, fresh medium containing the drug was added. Cells were incubated in a 37° C. incubator in a humified atmosphere with 5% CO2. […]
At the end of the treatment cells were washed twice with PBS and RNA was isolated for analysis of HtrA1 expression using quantitative Real-Time-PCR. […]
Quantitative Real-Time PCR was performed on the RotorGene3000 (Corbett Life Science) using Absolute QPCR SYBR Green Mix (ABgene) according to the manufacturer's instructions. 1 μl of cDNA, 12.5 μl Absolute QPCR SYBR Green Mix and 400 nM of each primer were used for the quantitative real-time PCR reaction. […]
The relative gene expression level of HtrA1 was calculated relative to the GAPDH and PPIA genes according to the method of Pfaffl (Pfaffl Nucleic Acids Res 29:e45 (2001)).

HtrA1 [3] = assay: HtrA1 RNA level by quantitative RT-PCR after shRNA transduction; type: cell-based, human; settings: U373 and SW480 cells expressing the shRNA vs empty vector control
Procedure: (§1) Analysis of HtrA1 and p21 expression in U373 (astrocytoma) and SW480 (colon cancer) cells transduced with an shRNA against HtrA1 or an empty vector control. The HtrA1- and p21-RNA level were analysed by quantitative RT-PCR.
(§2) The cell line SW480 derived from human colon adenocarcinoma (DMSZ no. ACC 313) and the cell line U373 MG derived from human glioblastoma astrocytoma (ECACC no. 89081403) were cultured in DMEM (Gibco, Invitrogen) supplemented with 10% fetal bovine serum (FBS) and 1% penicillin-streptomycin at 5% CO2 and 37° C. The media for the stable transduced SW480 cell lines additionally contain 1.8 μg/ml puromycin.
(§3) 4×10^5 SW480 cells/well were seeded into a six-well plate. After two days the six-well plate was 80% confluent and RNA was extracted by using total RNA isolation kit (Macherey-Nagel). RNA was purified with NucleoSpin RNAII columns (Macherey-Nagel) according to the procedure by the manufacturer. […]
(§4) Quantitative RT-PCR was done with Platinum SYBR Green qPCR-superMix-UDG-kit (Invitrogen) with Rotor-Gene RG3000 from Corbett Research. […]
(§5) The total reaction volume was of 25 μl, containing 12.5 μl SYBR Green PCR Master Mix (Invitrogen), 1 μl Primer (4.5 μM each) and 4 μl cDNA (20 ng). […] Melting curve was measured every 5 seconds from 50° C. to 99° C. Gene expression ratios for each sample were calculated as described (Pfaffl, Nucleic Acids Res, 29:e45 (2001)). […]

p21 = p21 RNA level by quantitative RT-PCR after shRNA against HtrA1; type: cell-based, human
Procedure: as §1, §2, §3, §4, §5

SW480 cells = assay: Polyploidy of SW480 cells depleted for HtrA1 (FACS, karyotyping); type: cell-based, human
Procedure: A) Polyploidy of SW480 cells depleted for HtrA1/FACS analysis • SW480 (colon cancer) cells were transduced with a shRNA against HtrA1. After some passages cells were analyzed by propidium iodide staining for their DNA content. Gate M1 corresponds to a DNA content of 2n, gate M3 corresponds to a DNA content of 4n and gate M5 corresponds to a DNA content of 8n. […] B) Polyploidy of SW480 cells depleted for HtrA 1/karyo-typing • Metaphase chromosomes of SW480 cell lines transduced with plko empty vector and plko vector containing a shRNA against HtrA1.
Cells were harvested by treatment with trypsin/EDTA. Cells were centrifuged for 5 minutes at 1700 g and 4° C. The pellet was resuspended and washed in 1 ml PBS. Cells were centrifuged again for 5 minutes at 1700 g and 4° C. The supernatant was discarded and the pellet was resuspended in 100 μl PBS. […] After addition of 5 μl RNase A (10 mg/ml) and 15 μl propidium iodide (2 mg/ml, Sigma #P4170), cells were incubated in the dark at 4° C. for 60 minutes and then analysed at the flow cytometer (FACScalibur, BD biosciences) […]
Cell suspensions were dropped onto pre-cleaned, wet, ice-cold glass microscope slides to obtain good spreading of the chromosome sets. […] Intact metaphase cells (those that were not disrupted during the preparation step) were counted for their chromosome numbers at 1000 fold magnification (oil-immersion).

Sequence of HtrA1 (Homo sapiens, UniProt Q92743) (Q92743 23-480): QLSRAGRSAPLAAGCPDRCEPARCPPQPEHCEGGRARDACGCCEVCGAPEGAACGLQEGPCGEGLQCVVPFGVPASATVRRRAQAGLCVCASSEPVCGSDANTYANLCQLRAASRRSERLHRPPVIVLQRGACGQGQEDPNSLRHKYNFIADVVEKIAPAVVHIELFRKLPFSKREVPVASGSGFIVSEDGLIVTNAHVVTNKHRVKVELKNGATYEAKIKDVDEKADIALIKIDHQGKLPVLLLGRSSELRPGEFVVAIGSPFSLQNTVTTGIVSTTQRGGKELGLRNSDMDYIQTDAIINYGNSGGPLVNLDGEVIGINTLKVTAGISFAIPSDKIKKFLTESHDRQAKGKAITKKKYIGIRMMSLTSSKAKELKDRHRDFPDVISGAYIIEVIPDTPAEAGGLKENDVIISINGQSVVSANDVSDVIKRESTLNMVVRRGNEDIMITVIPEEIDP

C=C1[C@@H](C)[C@H]2[C@H](Cc3ccccc3)NC(=O)[C@]23OC(=O)/C=C/[C@H](O)CCC[C@@H](C)C/C=C/[C@H]3[C@@H]1O [Cytochalasin B]
p21 induction and cell cycle arrest (cells; high amounts): induce p21 and cell cycle arrest
cell cycle arrest (cells; large amounts (10 μg/ml)): cell cycle arrest via p21
polyploidy (cells; large amounts (10 μg/ml)): cause polyploidy
cell cycle arrest (cells; low doses (0.5 μg/ml)): no cell cycle arrest
polyploidy (cells; low doses (0.5 μg/ml)): also cause polyploidy
polyploidy (cells; no concentration stated, by inhibition of actin polymerisation): causes polyploidy

C[C@H]1C/C=C/[C@H]2[C@@H]3O[C@]3(C)[C@@H](C)[C@H]3[C@H](Cc4ccccc4)NC(=O)[C@]32OC(=O)O/C=C/[C@@](C)(O)C1=O [Cytochalasin E]
HtrA1 activity inhibition (HtrA1 [1]): potent HtrA1 inhibitor
HtrA1 activity inhibition (HtrA1 [1]; listed as cytochalasin E): efficiently inhibits HtrA1

Nc1ncn([C@H]2C[C@H](O)[C@@H](CO)O2)c(=O)n1 [5-Aza-dC, 5-Aza-2′-deoxycytidine]
HtrA1 expression [2]: large increase in HtrA1 expression

CC(/C=C/C(=O)NO)=C\[C@@H](C)C(=O)c1ccc(N(C)C)cc1 [TSA, Trichostatin A]
HtrA1 expression [2]: large increase in HtrA1 expression

B1: shRNA against HtrA1: hairpin sequence (Seq. ID. No 25/26) in lentiviral plko vector, knocks down HtrA1 (nucleic acid)
sense: CCGGGATCTCAGGAGCGTATATATTCTCGAGAATATATACGCTCCTGAGATCTTTTTG
antisense: CTAGAGTCCTCGCATATATAAGAGCTCTTATATATGCGAGGACTCTAGAAAAACTTAA
HtrA1 level downregulated (HtrA1 [3]): more than 90%
p21 mRNA levels downregulated by a factor of (p21; HtrA1 expressed at much lower levels by shRNA): 10
P21 level down-regulated (p21; both cell lines (U373, SW480) expressing the shRNA against HtrA1): 90%
DNA content by propidium iodide staining (FACS) (SW480 cells; SW480 cells vs empty vector): shift of the main peak from 2n to 4n and a shift of the smaller peak from 4n to 8n
polyploidy by karyotyping of metaphase chromosomes (SW480 cells; SW480 cells vs empty vector control): higher grade of polyploidy
